# Data as given in patent US20110065138A1, “Quantitative Method For Detecting Yessotoxins In Fishery Products On Based On The Activation That The Toxin Produces In Cellular Phosphodiesterases And Therapeutic Use Of This Activation” (UNIVERSIDADE DE SANTIAGO DE COMPOSTELA, priority 2003, published 2011).
# Assays:
# [1] = system: cellular phosphatases; settings: in contrast to okadaic acid (Draisci, Lucentini et al., 2000); cited from earlier work
# [2] = system: cellular phosphodiesterases (PDEs); experiment: Activation of cellular phosphodiesterases (destruction of cAMP); assay type: biochemical
# Excerpt: A usual way of detecting cellular PDE activity is to observe their ability to destroy cAMP. There is a fluorescent derivative of cAMP, anthraniloyl-cAMP (excitation wavelength: 350 nm, emission wavelength: 445 nm), the fluorescence of which decreases as it degrades. The decrease of fluorescence over time can be expressed as the destruction rate of cAMP. In the presence of PDEs, the destruction rate increases, and if these enzymes are activated, the degradation rate will be even greater. In the present invention the degradation rate of the fluorescent indicator anthraniloyl-cAMP in the presence of PDEs is determined and its variation when samples with YTX are added is studied. Fluorescence is read with a fluorimeter that is prepared for reading microtitration plates. The destruction rate is determined in the presence of several known concentrations of YTX. […]
# The method is carried out in a microtitration plate in a temperature range between 22 and 37° C. and the fluorescence is measured at an excitation wavelength of 360 nanometers and an emission wavelength of 460 nanometers.
# a.—Test buffer (10 mM Tris HCl+1 mM CaCl2 pH 7.4) is added in all the wells for a final incubation volume of 100 μL, and the corresponding amount, depending on the type of well, of anthraniloyl-cAMP. A first reading is performed for 2 minutes. […]
# [3] = system: rat mastocytes; experiment: Inhibition of histamine release induced by immunological stimulus (ovalbumin) in rat mastocytes; assay type: cell-based
# Excerpt: Immunological activation of mastocytes and basophils requires a temporary increase of cAMP. This increase is indispensable for cell response activation (Botana and MacGlashan, 1994). PDE activation cancels this initial cAMP peak, and therefore prevents cell activation. In the presence of YTX, i.e. with activated PDEs, cell response will be inhibited. The inhibiting effect can be used in antiallergic or antiasthmatic therapeutic strategies, these being two pathologies in which mastocytes play a predominant role (Metcalfe, Baram, D. et al., 1997). The present use describes the quantification of the inhibition that YTX produces on cell activation induced by immunological stimulus in mastocytes in rats. Cell response inhibition can be determined according to different protocols described in the literature. One in which the response is quantified according to the histamine released by mastocytes in rats into the extracellular medium is set forth below (Alfonso, Cabado, A. G. et al., 2000; Estévez, Vieytes, et al., 1994).
# a.—The rats are sensitized 15 days before conducting the experiment. […]
# g.—The histamine is finally quantified, converting it into a fluorescent molecule by reaction in a base medium with o-phthalic dialdehyde. The reaction is stopped with hydrochloric acid and the fluorescence is read at 360 nm excitation and 460 nm emission.
# [4] = system: HEP-G2 cells; experiment: HEP-G2 cell growth inhibition by crystal violet staining; assay type: cell-based; settings: Homo sapiens, HepG2, 10 μM of YTX, 48 hours incubation, absorbance 595 nm
# Excerpt: Neoplasic cell growth inhibition is an indicator of antitumor activity widely used to describe antineoplasic properties of new drugs. […] The ability of YTX as a cytotoxic drug for hepatic carcinoma tumor cells is quantified in the present use. Cell growth inhibition can be determined according to different protocols described in the literature. One of these protocols is set forth below in which the response is quantified in the HEP-G2 cell line by means of crystal violet staining and subsequent acetylation.
# a.—HEP-G2 cells are seeded on a microtitration plate with a density of 10000 cells per well. They are incubated for 24 hours with growth medium at 37° C. and 5% CO2.
# b.—Different concentrations of YTX are added and it is incubated for 48 hours at 37° C. and 5% CO2.
# c.—10 μL of 11% glutaraldehyde are added to fix the cells and it is incubated for 15 minutes. It is washed 3-4 times with distilled water.
# d.—A 0.1% solution of crystal violet is added and the plate is shaken for 15 minutes.
# e.—The dye is removed by washing with distilled water and it is subsequently dried.
# f.—10% acetic acid is added and shaking is maintained for 15 minutes.
# g.—Absorbance is read in a spectrophotometer at 595 nanometers.
# h.—It was found with this protocol that 10 μM of YTX induce cell growth inhibition of about 82+/−1%.
structure (smiles),measurement,setting,value
"C=CCC(=C)/C=C/[C@@](C)(O)[C@H]1O[C@@H]2C[C@@H]3O[C@@H]4C[C@@H]5O[C@@H]6C[C@@H]7O[C@@H]8C[C@@H]9O[C@@H]%10C[C@@H]%11O[C@](C)(CCOS(=O)(=O)O)[C@@H](OS(=O)(=O)O)C[C@H]%11O[C@H]%10C[C@H]9O[C@H]8CC[C@@]7(C)O[C@@]6(C)CC[C@H](C)[C@H]5O[C@H]4C[C@@]3(C)O[C@H]2CC1=C [YTX, yessotoxin]",effect on cellular phosphatases,[1],does not inhibit
same,effect on PDE activity,[2],PDE activator
same,effect on histamine release activated by immunological stimulus,[3],histamine release inhibitor
same,inhibition at 10 µM,[4],~82%
